Data from US20260015350A1, “AZAQUINAZOLINE PAN-KRAS INHIBITORS” (Mirati Therapeutics, Inc., priority 2022, published 2026).

Columns and labels:
[1] = system: KRas-mediated phosphorylation of ERK in MKN1 cells; experiment: Inhibition of KRas-mediated phosphorylation of ERK (Cisbio HTRF pERK), MKN1 cells; type: cell-based; details: Homo sapiens, MKN-1
Summary of the method: (§1)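 Overnight culture at 37° C./5% CO2 in RPMI containing 10% FBS, seeded 6,000 cells per well, preceded the assay. A covered 4-hour incubation at room temperature followed, then HTRF signal for phosphorylated ERK was measured.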

[2] = system: KRas-mediated phosphorylation of ERK in H460 cells; experiment: Inhibition of KRas-mediated phosphorylation of ERK (Cisbio HTRF pERK), H460 cells; type: cell-based; details: Homo sapiens; for IC50: NCI-H460, HTRF pERK; for inhibition at 0.1 µM: NCI-H460, 3 h, single point, 100 nM compound, 3 hrs
Summary of the method: (§2)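 Min control wells contained 0.2 uM Trametinib, while test compounds ran as 10 doses (3-fold, top 10 uM; 0.8% DMSO final) on cells for 3 hrs. After 40 mins lysis at 4° C, lysates were probed with HTRF antibodies for 2 hrs at room temperature.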

KRas^G12D = target: T1, KRas^G12D (Homo sapiens, UniProt P01116, G12D); experiment: KRas binding assay (TR-FRET tracer displacement), KRas G12D
T1 construct: Biotinylated KRas (corresponding to amino acids 1-169, produced at Accelegan Inc.); biotin (biotinylated); purchased Accelegan Inc

KRas^G12V = target: T2, KRas^G12V (Homo sapiens, UniProt P01116, G12V); experiment: KRas binding assay (TR-FRET tracer displacement), KRas G12V
T2 construct: Biotinylated KRas (corresponding to amino acids 1-169, produced at Accelegan Inc.); biotin (biotinylated); purchased Accelegan Inc

[3] = system: KRas-mediated phosphorylation of ERK in PSN1 cells; experiment: Inhibition of KRas-mediated phosphorylation of ERK (Cisbio HTRF pERK), PSN1 cells; type: cell-based; details: Homo sapiens
Summary of the method: as §1

KRas^G12R = target: T3, KRas^G12R (Homo sapiens, UniProt P01116, G12R); experiment: KRas binding assay (TR-FRET tracer displacement), KRas G12R
T3 construct: Biotinylated KRas (corresponding to amino acids 1-169, produced at Accelegan Inc.); biotin (biotinylated); purchased Accelegan Inc

[4] = system: KRas-mediated phosphorylation of ERK in H358 cells; experiment: Inhibition of KRas-mediated phosphorylation of ERK (Cisbio HTRF pERK), H358 cells; type: cell-based; details: Homo sapiens; for IC50: NCI-H358, HTRF pERK
Summary of the method: as §2

[5] = system: KRas-mediated phosphorylation of ERK in AsPC-1 cells; experiment: Inhibition of KRas-mediated phosphorylation of ERK (Cisbio HTRF pERK), AsPC-1 cells; type: cell-based; details: Homo sapiens, ASPC1, AsPC-1 cells; HTRF pERK
Summary of the method: as §2

[6] = system: KRas-mediated phosphorylation of ERK in HCT116 cells; experiment: Inhibition of KRas-mediated phosphorylation of ERK (Cisbio HTRF pERK), HCT116 cells; type: cell-based; details: Homo sapiens; for IC50: HCT-116, HTRF pERK; for inhibition at 0.1 µM: HCT-116, 3 h, single point, 100 nM compound, 3 hrs
Summary of the method: as §2

[7] = system: KRas-mediated phosphorylation of ERK in A549 cells; experiment: Inhibition of KRas-mediated phosphorylation of ERK (Cisbio HTRF pERK), A549 cells; type: cell-based; details: Homo sapiens; for IC50: HTRF pERK
Summary of the method: as §2

[8] = system: KRas-mediated phosphorylation of ERK in H727 cells; experiment: Inhibition of KRas-mediated phosphorylation of ERK (Cisbio HTRF pERK), H727 cells; type: cell-based; details: Homo sapiens, NCI-H727, H727 cells; HTRF pERK
Summary of the method: as §2

T3 sequence (P01116 1-169 isoform P01116-2 G12R): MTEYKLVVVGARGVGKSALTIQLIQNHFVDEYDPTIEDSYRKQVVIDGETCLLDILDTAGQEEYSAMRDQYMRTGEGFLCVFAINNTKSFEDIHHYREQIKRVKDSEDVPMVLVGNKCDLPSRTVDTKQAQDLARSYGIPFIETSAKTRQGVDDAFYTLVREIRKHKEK
T2 sequence (P01116 1-169 isoform P01116-2 G12V): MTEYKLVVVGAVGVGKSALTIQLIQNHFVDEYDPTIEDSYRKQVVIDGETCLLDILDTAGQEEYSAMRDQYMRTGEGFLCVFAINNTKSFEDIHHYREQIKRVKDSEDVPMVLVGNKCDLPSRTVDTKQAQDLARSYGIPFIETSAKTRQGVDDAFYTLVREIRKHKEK
T1 sequence (P01116 1-169 isoform P01116-2 G12D): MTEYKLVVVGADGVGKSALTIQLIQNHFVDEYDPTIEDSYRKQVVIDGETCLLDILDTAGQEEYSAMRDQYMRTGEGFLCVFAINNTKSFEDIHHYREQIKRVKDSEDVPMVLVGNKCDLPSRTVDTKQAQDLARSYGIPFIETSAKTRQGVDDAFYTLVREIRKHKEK

Row | SMILES | IC50 [1] [nM] | IC50 [2] [nM] | IC50 (KRas^G12D) [nM] | IC50 (KRas^G12V) [nM] | IC50 [3] [nM] | IC50 (KRas^G12R) [nM] | IC50 [4] [nM] | IC50 [5] [nM] | IC50 [6] [nM] | IC50 [7] [nM] | IC50 [8] [nM] | inhibition at 0.1 µM [2] [%] | inhibition at 0.1 µM [6] [%] | inhibition at 0.1 µM ([4]; NCI-H358, 3 h, single point, 100 nM compound, 3 hrs) [%] | inhibition at 0.1 µM ([7]; A549, 3 h, single point, 100 nM compound, 3 hrs) [%]
1 | CCc1c(F)ccc2cc(O)cc(-c3ncc4c(N5C[C@H](F)C[C@@H](OC)C5)nc(OC[C@@]56CCCN5C[C@H](F)C6)nc4c3F)c12 [Example 557, 5-ethyl-6-fluoro-4-(8-fluoro-4-((3R,5R)-3-fluoro-5-methoxypiperidin-1-yl)-2-(((2R,7aS)-2-fluorohexahydro-1H-pyrrolizin-7a-yl)methoxy)pyrido[4,3-d]pyrimidin-7-yl)naphthalen-2-ol] | 22 | 165 | 12 | 6 | > 10000 | 4 |  | 617 | 517 | 174 | 216 |  |  |  | 
2 | CCc1c(F)ccc2cc(O)cc(-c3ncc4c(N5CCCc6ncccc6C5)nc(OC[C@@]56CCCN5C[C@H](F)C6)nc4c3F)c12 [Example 579, 5-ethyl-6-fluoro-4-(8-fluoro-2-(((2R,7aS)-2-fluorotetrahydro-1H-pyrrolizin-7a(5H)-yl)methoxy)-4-(5,7,8,9-tetrahydro-6H-pyrido[3,2-c]azepin-6-yl)pyrido[4,3-d]pyrimidin-7-yl)naphthalen-2-ol] | 37 | 481 | 5 | 6 | > 10000 | 3 |  | 155 | 1780 | 357 | 369 |  |  |  | 
3 | CCc1c(F)ccc2cc(O)cc(-c3ncc4c(N5CCCC(C6(O)CCC6)C5)nc(OC[C@@]56CCCN5C[C@H](F)C6)nc4c3F)c12 (stereo partly drawn) [Example 593, 5-ethyl-6-fluoro-4-(8-fluoro-2-(((2R,7aS)-2-fluorotetrahydro-1H-pyrrolizin-7a(5H)-yl)methoxy)-4-(3-(1-hydroxycyclobutyl)piperidin-1-yl)pyrido[4,3-d]pyrimidin-7-yl)naphthalen-2-ol] | 293 |  | 72 | 10 | > 10000 | 7 |  | 1230 |  |  | 391 | 0 | -4 |  | 
4 | CCc1c(F)ccc2cc(O)cc(-c3ncc4c(NCc5cc(C(=O)N(C)C)n(C(F)F)n5)nc(OC[C@@]56CCCN5C[C@H](F)C6)nc4c3F)c12 [Example 662, 1-(difluoromethyl)-3-(((7-(8-ethyl-7-fluoro-3-hydroxynaphthalen-1-yl)-8-fluoro-2-(((2R,7aS)-2-fluorohexahydro-1H-pyrrolizin-7a-yl)methoxy)pyrido[4,3-d]pyrimidin-4-yl)amino)methyl)-N,N-dimethyl-1H-pyrazole-5-carboxamide] | 57 |  | 3 | < 2 | > 10000 | 3 |  | 837 |  |  | 274 |  |  | 22 | 22
5 | CCc1c(F)ccc2cc(O)cc(-c3ncc4c(N5CCCc6nc(C(=O)N(C)C)ccc6C5)nc(OC[C@@]56CCCN5C[C@H](F)C6)nc4c3F)c12 [Example 666, 6-(7-(8-ethyl-7-fluoro-3-hydroxynaphthalen-1-yl)-8-fluoro-2-(((2R,7aS)-2-fluorohexahydro-1H-pyrrolizin-7a-yl)methoxy)pyrido[4,3-d]pyrimidin-4-yl)-N,N-dimethyl-6,7,8,9-tetrahydro-5H-pyrido[3,2-c]azepine-2-carboxamide] | 18 |  | < 2 | 2 | > 10000 | < 2 |  | 184 |  | 207 | 320 | 59 | 24 |  | 
6 | CCc1c(F)ccc2cc(O)cc(-c3ncc4c(N5CCCn6nc(S(=O)(=O)N(C)C)cc6C5)nc(OC[C@@]56CCCN5C[C@H](F)C6)nc4c3F)c12 [Example 685, 5-(7-(8-ethyl-7-fluoro-3-hydroxynaphthalen-1-yl)-8-fluoro-2-(((2R,7aS)-2-fluorohexahydro-1H-pyrrolizin-7a-yl)methoxy)pyrido[4,3-d]pyrimidin-4-yl)-N,N-dimethyl-5,6,7,8-tetrahydro-4H-pyrazolo[1,5-a][1,4]diazepine-2-sulfonamide] | 9 | 188 | < 2 | 8 | > 10000 | 6 |  | 245 | 359 | 1090 | 1670 |  |  |  | 
7 | CCc1c(F)ccc2cc(O)cc(-c3ncc4c(N5CCC[C@@](C)(O)C5)nc(OCC5(CNC)CC5)nc4c3F)c12 [Example 696, (R)-1-(7-(8-ethyl-7-fluoro-3-hydroxynaphthalen-1-yl)-8-fluoro-2-((1-((methylamino)methyl)cyclopropyl)methoxy)pyrido[4,3-d]pyrimidin-4-yl)-3-methylpiperidin-3-ol] | 123 |  | < 2 | < 2 | > 10000 | 3 |  | 690 |  |  | 948 | 21 | 5 |  | 
8 | CCc1c(F)ccc2cc(O)cc(-c3ncc4c(N5CCCCC5)nc(OC[C@@]56CCCN5C[C@H](F)C6)nc4c3F)c12 [Example 900, 5-ethyl-6-fluoro-4-(8-fluoro-2-(((2R,7aS)-2-fluorotetrahydro-1H-pyrrolizin-7a(5H)-yl)methoxy)-4-(piperidin-1-yl)pyrido[4,3-d]pyrimidin-7-yl)naphthalen-2-ol] | 3 | 96 |  |  | > 10000 |  | 82 | 213 | 504 | 136 | 240 |  |  |  | 

The next lines start with results.

Row | IC50 [1] [nM] | IC50 [2] [nM] | IC50 (KRas^G12D) [nM] | IC50 (KRas^G12V) [nM] | IC50 [3] [nM] | IC50 (KRas^G12R) [nM] | IC50 [4] [nM] | IC50 [5] [nM] | IC50 [6] [nM] | IC50 [7] [nM] | IC50 [8] [nM] | SMILES | inhibition at 0.1 µM [2] [%] | inhibition at 0.1 µM [6] [%] | inhibition at 0.1 µM ([4]; NCI-H358, 3 h, single point, 100 nM compound, 3 hrs) [%] | inhibition at 0.1 µM ([7]; A549, 3 h, single point, 100 nM compound, 3 hrs) [%]
9 | 1240 | 7040 | 5 | 3 | > 10000 | 2 | 2540 | > 10000 | > 10000 | > 10000 | > 10000 | C[C@@H]1C[C@@H]1c1c(Cl)cc2[nH]ncc2c1-c1ncc2c(N3CCC[C@]4(C3)NC(=O)NC4=O)nc(OCC34CCCN3CCC4)nc2c1F (atropisomer, axis not shown) [Example 887, (R)-7-(7-((R)-6-chloro-5-((1S,2R)-2-methylcyclopropyl)-1H-indazol-4-yl)-8-fluoro-2-((tetrahydro-1H-pyrrolizin-7a(5H)-yl)methoxy)pyrido[4,3-d]pyrimidin-4-yl)-1,3,7-triazaspiro[4.5]decane-2,4-dione] |  |  |  | 
10 | 10 | 160 | 3 | < 2 | 2620 | < 2 |  | 147 | 411 | 299 | 340 | CCc1c(F)ccc2cc(O)cc(-c3ncc4c(N5CCCC6(CNS(=O)(=O)C6)C5)nc(OC[C@@]56CCCN5C[C@H](F)C6)nc4c3F)c12 (stereo partly drawn) [Example 644, 7-(7-(8-ethyl-7-fluoro-3-hydroxynaphthalen-1-yl)-8-fluoro-2-(((2R,7aS)-2-fluorohexahydro-1H-pyrrolizin-7a-yl)methoxy)pyrido[4,3-d]pyrimidin-4-yl)-2-thia-3,7-diazaspiro[4.5]decane 2,2-dioxide] |  |  |  | 
11 | 43 |  | 4 | 2 | 3620 | 4 |  | 97 |  | 344 | 153 | CCc1c(F)ccc2cc(O)cc(-c3ncc4c(N5CCCC6(CC(=O)N6)C5)nc(OC[C@]56CCCN5[C@H](COC(=O)N(C)C)CC6)nc4c3F)c12 (stereo partly drawn) [Example 715, ((3S,7aR)-7a-(((7-(8-ethyl-7-fluoro-3-hydroxynaphthalen-1-yl)-8-fluoro-4-(2-oxo-1,6-diazaspiro[3.5]nonan-6-yl)pyrido[4,3-d]pyrimidin-2-yl)oxy)methyl)hexahydro-1H-pyrrolizin-3-yl)methyl dimethylcarbamate] | 42 | 8 |  | 
